Experimental findings from patent publication US20230265151A1, “GIP/GLP1 CO-AGONIST COMPOUNDS” (priority 2020, published 2023) are described below.

One experiment addresses T1, hGCGR (Homo sapiens, UniProt P47871).
T1 construct: expressed in transfected cells
Put plainly: Functional cAMP formation (HTRF) in HEK-293 clonal cells expressing hGCGR, 0.1% bovine casein, without or with 1.0% human serum albumin. Type of experiment: cell-based. In short, it runs like this:
(§1)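 Cells were stimulated with peptide for 30 min at 37° C, then intracellular cAMP was measured by competitive HTRF (665/620 nm ratio) and converted to nM using a cAMP standard curve. Relative EC50 and Emax came from four-parameter logistic fits of percent maximal response against peptide concentration.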

The target of another experiment is hGLP-1R (Homo sapiens, UniProt P43220). Put plainly: Functional cAMP formation (HTRF) in HEK-293 clonal cells expressing hGLP-1R, 0.1% bovine casein, without or with 1.0% human serum albumin. The class given is cell-based. On the set-up: expressed in transfected cells. In short, it runs like this:
as §1
For orientation: cAMP levels reflect the balance of adenylyl cyclase and phosphodiesterase activity.

For another experiment, the target named is T2, hGIPR (Homo sapiens, UniProt P48546).
T2 construct: expressed in transfected cells
T2 sequence (P48546 22-466): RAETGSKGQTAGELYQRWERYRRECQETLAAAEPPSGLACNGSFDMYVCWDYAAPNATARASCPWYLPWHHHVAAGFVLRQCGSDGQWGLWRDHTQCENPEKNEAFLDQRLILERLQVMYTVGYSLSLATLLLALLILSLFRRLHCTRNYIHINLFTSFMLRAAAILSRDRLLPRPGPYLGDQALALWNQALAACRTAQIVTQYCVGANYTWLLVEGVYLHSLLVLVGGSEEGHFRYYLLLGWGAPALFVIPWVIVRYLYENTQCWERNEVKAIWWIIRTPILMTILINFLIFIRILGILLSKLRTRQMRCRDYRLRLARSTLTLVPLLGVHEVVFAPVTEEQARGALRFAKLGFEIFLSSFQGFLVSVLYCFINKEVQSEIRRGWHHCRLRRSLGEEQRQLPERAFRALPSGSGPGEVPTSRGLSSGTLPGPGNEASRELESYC
The experiment can be described thus: Functional cAMP formation (HTRF) in HEK-293 clonal cells expressing hGIPR, 0.1% bovine casein, without or with 1.0% human serum albumin. Type of experiment: cell-based. To be noted: for EC50: geometric mean. Summed up:
as §1

The target of experiment [1] is T3, human GLP-1 receptor (hGLP-1R) (Homo sapiens, UniProt P43220).
T3 construct: expressed in transfected cells; crude membranes
Put plainly: [125I]-GLP-1 binding, SPA with membranes of HEK293 cells expressing hGLP-1R.

The target in experiment [2] is T4, human GIP receptor (hGIPR) (Homo sapiens, UniProt P48546).
T4 construct: expressed in transfected cells; crude membranes
T4 sequence (P48546 22-466): T2 sequence (P48546 22-466)
The experiment can be described thus: [125I]-GIP binding, SPA with membranes of CHO cells expressing hGIPR.

Setting [3] is: human GLP-1R, geometric mean (SEM, n), read-out: Binding Affinity Ki, nM (SEM, n) hGLP-1R.
Setting [4] is: human GIPR, geometric mean (SEM, n), read-out: Binding Affinity Ki, nM (SEM, n) hGIPR.

Read-outs that look alike come from different tables or passages of the source.

Chain of hGLP-1R (P43220 24-463): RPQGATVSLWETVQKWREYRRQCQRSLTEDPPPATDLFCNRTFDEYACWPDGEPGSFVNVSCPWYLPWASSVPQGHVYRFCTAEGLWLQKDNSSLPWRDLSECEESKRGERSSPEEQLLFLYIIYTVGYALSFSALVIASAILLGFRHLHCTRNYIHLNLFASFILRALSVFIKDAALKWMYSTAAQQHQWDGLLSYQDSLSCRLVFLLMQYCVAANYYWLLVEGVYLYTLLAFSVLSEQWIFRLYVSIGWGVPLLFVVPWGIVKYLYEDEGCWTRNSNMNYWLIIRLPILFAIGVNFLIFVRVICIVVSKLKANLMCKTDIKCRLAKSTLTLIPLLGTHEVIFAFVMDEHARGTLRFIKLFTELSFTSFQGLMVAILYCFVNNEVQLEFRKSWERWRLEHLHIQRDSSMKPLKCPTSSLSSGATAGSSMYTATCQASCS
T1 sequence (P47871 26-477): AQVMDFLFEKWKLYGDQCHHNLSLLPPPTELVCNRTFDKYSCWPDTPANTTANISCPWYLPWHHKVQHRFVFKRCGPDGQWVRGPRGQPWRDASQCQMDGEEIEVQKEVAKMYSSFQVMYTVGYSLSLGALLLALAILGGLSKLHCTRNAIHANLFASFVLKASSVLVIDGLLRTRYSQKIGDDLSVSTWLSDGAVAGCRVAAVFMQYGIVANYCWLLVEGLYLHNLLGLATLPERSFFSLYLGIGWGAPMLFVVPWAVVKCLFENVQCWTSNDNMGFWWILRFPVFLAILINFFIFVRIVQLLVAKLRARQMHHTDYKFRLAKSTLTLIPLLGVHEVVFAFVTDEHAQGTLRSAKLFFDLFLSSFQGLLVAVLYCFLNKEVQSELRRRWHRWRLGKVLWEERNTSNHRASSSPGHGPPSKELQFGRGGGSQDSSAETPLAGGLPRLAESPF

What is called EC50 is the midpoint of the concentration-response curve. One may read the Emax as the size of the effect at its maximum, as opposed to the concentration needed. For orientation: Ki means the dissociation constant of the complex between target and ligand, obtained from inhibition or displacement. For the compound `CCCCCCCCCCCC(=O)N[C@@H](CCC(=O)NCCOCCOCC(=O)NCCOCCOCC(=O)NCCCC[C@H](NC(=O)[C@H](CCCN)NC(=O)[C@H](CC(=O)O)NC(=O)[C@H](CC(C)C)NC(=O)[C@](C)(CC(C)C)NC(=O)[C@@H](NC(=O)C(C)(C)NC(=O)[C@H](CCCCNC(=O)COCCOCCNC(=O)COCCOCCNC(=O)CC[C@H](NC(=O)CCCCCCCCCCC)C(=O)O)NC(=O)[C@H](CC(=O)O)NC(=O)[C@H](CO)NC(=O)[C@@H](NC(=O)[C@](C)(Cc1ccccc1F)NC(=O)[C@@H](NC(=O)CNC(=O)[C@H](CCC(=O)O)NC(=O)C(C)(C)NC(=O)[C@@H](N)Cc1ccc(O)cc1)[C@@H](C)O)[C@@H](C)O)[C@@H](C)CC)C(=O)N[C@@H](C)C(=O)N[C@@H](CCC(N)=O)C(=O)NC(C)(C)C(=O)N[C@@H](CCCN)C(=O)N[C@@H](Cc1ccccc1)C(=O)N[C@H](C(=O)N[C@H](CCC(=O)O)C(=O)N[C@@](C)(Cc1ccc(O)cc1)C(=O)N[C@@H](CC(C)C)C(=O)N[C@H](C(=O)N[C@@H](CCC(=O)O)C(=O)NCC(=O)NCC(=O)N1CCC[C@H]1C(=O)N[C@@H](CO)C(=O)N[C@@H](CO)C(=O)NCC(=O)N[C@@H](C)C(=O)N1CCC[C@H]1C(=O)N1CCC[C@H]1C(=O)N1CCC[C@H]1C(=O)N[C@@H](CO)C(N)=O)[C@@H](C)CC)[C@@H](C)CC)C(=O)O` [Example 417], the EC50 is more than 9950 nM at hGCGR (cAMP, 37° C., 0.1% bovine casein (no human serum albumin), geometric mean, read-out: hGCGR EC50, nM (SEM, n)); more than 9950 nM at hGCGR (cAMP, 37° C., 0.1% bovine casein and 1.0% human serum albumin, geometric mean (SEM, n), read-out: hGCGR EC50, nM (SEM, n)); 0.0675 nM on hGLP-1R (cAMP, 37° C., 0.1% bovine casein (no human serum albumin), geometric mean, read-out: hGLP-1R EC50, nM (SEM, n)); 2.66 nM on hGLP-1R (cAMP, 37° C., 0.1% bovine casein and 1.0% human serum albumin, geometric mean (SEM, n), read-out: hGLP-1R EC50, nM (SEM, n)); 0.00651 nM on hGIPR (cAMP, 37° C., 0.1% bovine casein (no human serum albumin), read-out: hGIPR EC50, nM (SEM, n)). The Emax on hGLP-1R (HEK293, cAMP, 37° C., 0.1% bovine casein, percent of maximal response to GLP-1(7-36)NH2, arithmetic mean, read-out: hGLP-1R Emax, % ± SEM) came out at 109%; on hGIPR (HEK293, cAMP, 37° C., 0.1% bovine casein and 1.0% human serum albumin, percent of maximal response to GIP(1-42)NH2, read-out: hGIPR Emax, % ± SEM), 96.4%. Also, the Ki in experiment [1] (setting [3]) worked out at 0.167 nM; in experiment [2] (setting [4]), 0.0214 nM.

In the case of `CC[C@H](C)[C@H](NC(=O)[C@H](CC(C)C)NC(=O)[C@](C)(Cc1ccc(O)cc1)NC(=O)[C@@H](CCC(=O)O)NC(=O)[C@@H](NC(=O)[C@H](Cc1ccccc1)NC(=O)[C@H](CCC(=O)O)NC(=O)C(C)(C)NC(=O)[C@H](CCC(N)=O)NC(=O)[C@H](C)NC(=O)[C@H](CCCCNC(=O)COCCOCCNC(=O)COCCOCCNC(=O)CC[C@H](NC(=O)CCCc1ccc(C(C)(C)C)cc1)C(=O)O)NC(=O)[C@H](CCCN)NC(=O)[C@H](CC(=O)O)NC(=O)[C@H](CC(C)C)NC(=O)[C@](C)(CC(C)C)NC(=O)[C@@H](NC(=O)[C@H](CO)NC(=O)[C@H](Cc1ccncc1)NC(=O)[C@H](CC(=O)O)NC(=O)[C@H](CO)NC(=O)[C@@H](NC(=O)[C@](C)(Cc1ccccc1F)NC(=O)[C@@H](NC(=O)CNC(=O)[C@H](CCC(=O)O)NC(=O)C(C)(C)NC(=O)[C@@H](N)Cc1ccc(O)cc1)[C@@H](C)O)[C@@H](C)O)[C@@H](C)CC)[C@@H](C)CC)C(=O)N[C@@H](CCC(=O)O)C(=O)NCC(=O)NCC(=O)N[C@@H](CCCCNC(=O)COCCOCCNC(=O)COCCOCCNC(=O)CC[C@H](NC(=O)CCCc1ccc(C(C)(C)C)cc1)C(=O)O)C(=O)N[C@@H](CO)C(=O)N[C@@H](CO)C(=O)NCC(=O)N[C@@H](C)C(=O)N1CCC[C@H]1C(=O)N1CCC[C@H]1C(=O)N1CCC[C@H]1C(=O)N[C@@H](CO)C(N)=O` [Example 4], the EC50 at hGCGR (hGCGR EC50, nM (SEM, n), 0.1% bovine casein and 1.0% human serum albumin, 37° C., geometric mean) is more than 9950 nM; on hGCGR (hGCGR EC50, nM (SEM, n), cAMP, incubated at 37° C., 0.1% bovine casein (no human serum albumin), geometric mean) it was more than 9950 nM; on hGLP-1R (hGLP-1R EC50, nM (SEM, n), 0.1% bovine casein and 1.0% human serum albumin, 37° C., geometric mean), 0.584 nM; at hGLP-1R (hGLP-1R EC50, nM (SEM, n), cAMP, incubated at 37° C., 0.1% bovine casein (no human serum albumin), geometric mean) it was 0.137 nM; on hGIPR (hGIPR EC50, nM (SEM, n), 0.1% bovine casein and 1.0% human serum albumin, 37° C.) it was 0.0296 nM. The Emax on hGIPR (HEK293, read-out: hGIPR Emax, % ± SEM, 0.1% bovine casein and 1.0% human serum albumin, 37° C., percent of maximal response to GIP(1-42)NH2) turned out to be 88.3 ± 2.17%; on hGIPR (HEK293, read-out: hGIPR Emax, % ± SEM, percent of maximal response to GIP(1-42)NH2, 37° C., 0.1% bovine casein, arithmetic mean), 92.9 ± 0.381%. For the same compound, the Ki in experiment [1] was determined as 0.413 nM; in experiment [2], 0.0528 nM.

On to `CC[C@H](C)[C@H](NC(=O)[C@H](CC(C)C)NC(=O)[C@](C)(Cc1ccc(O)cc1)NC(=O)[C@@H](CCC(=O)O)NC(=O)[C@@H](NC(=O)[C@H](Cc1cc(F)cc(F)c1)NC(=O)[C@H](CCC(=O)O)NC(=O)C(C)(C)NC(=O)[C@H](CCC(N)=O)NC(=O)[C@H](C)NC(=O)[C@H](CCCCNC(=O)COCCOCCNC(=O)COCCOCCNC(=O)CC[C@H](NC(=O)CCCCCCCCCCCCC(=O)O)C(=O)O)NC(=O)[C@H](CCCN)NC(=O)[C@H](CC(=O)O)NC(=O)[C@H](CC(C)C)NC(=O)[C@](C)(CC(C)C)NC(=O)[C@@H](NC(=O)[C@H](CO)NC(=O)[C@H](Cc1ccncc1)NC(=O)[C@H](CC(=O)O)NC(=O)[C@H](CO)NC(=O)[C@@H](NC(=O)[C@](C)(Cc1ccccc1F)NC(=O)[C@@H](NC(=O)CNC(=O)[C@H](CCC(=O)O)NC(=O)C(C)(C)NC(=O)[C@@H](N)Cc1ccc(O)cc1)[C@@H](C)O)[C@@H](C)O)[C@@H](C)CC)[C@@H](C)CC)C(=O)N[C@@H](CCC(=O)O)C(=O)NCC(=O)NCC(=O)N[C@@H](CCCCNC(=O)COCCOCCNC(=O)COCCOCCNC(=O)CC[C@H](NC(=O)CCCCCCCCCCCCC(=O)O)C(=O)O)C(=O)N[C@@H](CO)C(=O)N[C@@H](CO)C(=O)NCC(=O)N[C@@H](C)C(=O)N1CCC[C@H]1C(=O)N1CCC[C@H]1C(=O)N1CCC[C@H]1C(=O)N[C@@H](CO)C(N)=O` [Example 65], for which the EC50 at hGCGR (0.1% bovine casein and 1.0% human serum albumin, 37° C., geometric mean, read-out: hGCGR EC50, nM (SEM, n)) was more than 9950 nM; on hGCGR (cAMP, incubated at 37° C., 0.1% bovine casein (no human serum albumin), geometric mean, read-out: hGCGR EC50, nM (SEM, n)), more than 9950 nM; at hGLP-1R (cAMP, incubated at 37° C., 0.1% bovine casein (no human serum albumin), geometric mean, read-out: hGLP-1R EC50, nM (SEM, n)), 0.3 nM; on hGIPR (cAMP, incubated at 37° C., 0.1% bovine casein (no human serum albumin), read-out: hGIPR EC50, nM (SEM, n)), 0.0139 nM. In addition, the Emax at hGIPR (HEK293, 0.1% bovine casein and 1.0% human serum albumin, 37° C., percent of maximal response to GIP(1-42)NH2, read-out: hGIPR Emax, % ± SEM) amounted to 93.8 ± 6.73%; on hGIPR (HEK293, percent of maximal response to GIP(1-42)NH2, 37° C., 0.1% bovine casein, arithmetic mean, read-out: hGIPR Emax, % ± SEM) it was 95.2 ± 2.93%. The Ki was found to be 1.05 nM in experiment [1] (setting [3]) and 0.121 nM in experiment [2] (setting [4]).
